Assay: Weekly hematology (CBC with differential); as to Red Blood Cells HCT: test concentration or dose not given here; as to White Blood Cells BASO: test concentration or dose not given here; as to White Blood Cells EOS: test concentration or dose not given here; as to White Blood Cells LYMP + MONO: test concentration or dose not given here; as to White Blood Cells NEUT: test concentration or dose not given here; as to White Blood Cells WBC: test concentration or dose not given here
Format: in vivo, Male Ross x Ross broiler chickens

Substance: Candida utilis phosphoglucomannan [CUP]
- Others Het/Poly (Day 3, dose group 1): 14.67%
- Red Blood Cells HCT (Day 3, dose group 1): 30.60%
- White Blood Cells BASO (Day 3, dose group 1): 193.33 X/uL
- White Blood Cells EOS (Day 3, dose group 1): 0.00 X/uL
- White Blood Cells LYMP + MONO (Day 3, dose group 1): 2956.67 X/uL
- White Blood Cells NEUT (Day 3, dose group 1): 516.67 X/uL
- White Blood Cells WBC (Day 3, dose group 1): 3670 µL⁻¹
- Others Het/Poly (Day 3, dose group 3): 20.33%
- Red Blood Cells HCT (Day 3, dose group 3): 28.67%
- White Blood Cells BASO (Day 3, dose group 3): 78.33 X/uL
- White Blood Cells EOS (Day 3, dose group 3): 6.67 X/uL
- White Blood Cells LYMP + MONO (Day 3, dose group 3): 2595.00 X/uL
- White Blood Cells NEUT (Day 3, dose group 3): 820.00 X/uL
- White Blood Cells WBC (Day 3, dose group 3): 3500 µL⁻¹
- Others Het/Poly (Day 3, dose group 20): 17.67%
- Red Blood Cells HCT (Day 3, dose group 20): 27.00%
- White Blood Cells BASO (Day 3, dose group 20): 48.33 X/uL
- White Blood Cells EOS (Day 3, dose group 20): 0.00 X/uL
- White Blood Cells LYMP + MONO (Day 3, dose group 20): 2828.33 X/uL
- White Blood Cells NEUT (Day 3, dose group 20): 623.33 X/uL
- White Blood Cells WBC (Day 3, dose group 20): 3500 µL⁻¹
- Others Het/Poly (Day 7, dose group 1): 21.00%
- White Blood Cells BASO (Day 7, dose group 1): 85.00 X/uL
- White Blood Cells EOS (Day 7, dose group 1): 0.00 X/uL
- White Blood Cells LYMP + MONO (Day 7, dose group 1): 4665.00 X/uL
- White Blood Cells NEUT (Day 7, dose group 1): 1250.00 X/uL
- White Blood Cells WBC (Day 7, dose group 1): 6000 µL⁻¹
- Others Het/Poly (Day 7, dose group 3): 21.33%
- White Blood Cells BASO (Day 7, dose group 3): 193.33 X/uL
- White Blood Cells EOS (Day 7, dose group 3): 0.00 X/uL
- White Blood Cells LYMP + MONO (Day 7, dose group 3): 4253.33 X/uL
- White Blood Cells NEUT (Day 7, dose group 3): 1220.00 X/uL
- White Blood Cells WBC (Day 7, dose group 3): 5670 µL⁻¹
- Others Het/Poly (Day 7, dose group 20): 25.67%
- White Blood Cells BASO (Day 7, dose group 20): 113.33 X/uL
- White Blood Cells EOS (Day 7, dose group 20): 0.00 X/uL
- White Blood Cells LYMP + MONO (Day 7, dose group 20): 4050.00 X/uL
- White Blood Cells NEUT (Day 7, dose group 20): 1503.33 X/uL
- White Blood Cells WBC (Day 7, dose group 20): 5670 µL⁻¹
- Others Het/Poly (Day 15, dose group 1): 41.33%
- Red Blood Cells HCT (Day 15, dose group 1): 27.33%
- White Blood Cells BASO (Day 15, dose group 1): 146.67 X/uL
- White Blood Cells EOS (Day 15, dose group 1): 0.00 X/uL
- White Blood Cells LYMP + MONO (Day 15, dose group 1): 4346.67 X/uL
- White Blood Cells NEUT (Day 15, dose group 1): 3506.67 X/uL
- White Blood Cells WBC (Day 15, dose group 1): 8000 µL⁻¹
- Others Het/Poly (Day 15, dose group 3): 39.00%
- Red Blood Cells HCT (Day 15, dose group 3): 31.00%
- White Blood Cells BASO (Day 15, dose group 3): 153.33 X/uL
- White Blood Cells EOS (Day 15, dose group 3): 0.00 X/uL
- White Blood Cells LYMP + MONO (Day 15, dose group 3): 4796.67 X/uL
- White Blood Cells NEUT (Day 15, dose group 3): 3383.33 X/uL
- White Blood Cells WBC (Day 15, dose group 3): 8330 µL⁻¹
- Others Het/Poly (Day 15, dose group 20): 45.33%
- Red Blood Cells HCT (Day 15, dose group 20): 22.00%
- White Blood Cells BASO (Day 15, dose group 20): 113.33 X/uL
- White Blood Cells EOS (Day 15, dose group 20): 0.00 X/uL
- White Blood Cells LYMP + MONO (Day 15, dose group 20): 3710.00 X/uL
- White Blood Cells NEUT (Day 15, dose group 20): 2843.33 X/uL
- White Blood Cells WBC (Day 15, dose group 20): 6670 µL⁻¹
- Others Het/Poly (Day 21, dose group 1): 29.00%
- Red Blood Cells HCT (Day 21, dose group 1): 30.00%
- White Blood Cells BASO (Day 21, dose group 1): 240.00 X/uL
- White Blood Cells EOS (Day 21, dose group 1): 0.00 X/uL
- White Blood Cells LYMP + MONO (Day 21, dose group 1): 5440.00 X/uL
- White Blood Cells NEUT (Day 21, dose group 1): 2320.00 X/uL
- White Blood Cells WBC (Day 21, dose group 1): 8000 µL⁻¹
- Others Het/Poly (Day 21, dose group 3): 26.00%
- Red Blood Cells HCT (Day 21, dose group 3): 30.33%
- White Blood Cells BASO (Day 21, dose group 3): 250.00 X/uL
- White Blood Cells EOS (Day 21, dose group 3): 0.00 X/uL
- White Blood Cells LYMP + MONO (Day 21, dose group 3): 6640.00 X/uL
- White Blood Cells NEUT (Day 21, dose group 3): 2443.33 X/uL
- White Blood Cells WBC (Day 21, dose group 3): 9330 µL⁻¹
- Others Het/Poly (Day 21, dose group 20): 32.67%
- Red Blood Cells HCT (Day 21, dose group 20): 31.00%
- White Blood Cells BASO (Day 21, dose group 20): 306.67 X/uL
- White Blood Cells EOS (Day 21, dose group 20): 0.00 X/uL
- White Blood Cells LYMP + MONO (Day 21, dose group 20): 6746.67 X/uL
- White Blood Cells NEUT (Day 21, dose group 20): 3280.00 X/uL
- White Blood Cells WBC (Day 21, dose group 20): 10330 µL⁻¹
- Others Het/Poly (Day 28, dose group 1): 42.00%
- Red Blood Cells HCT (Day 28, dose group 1): 29.33%
- White Blood Cells BASO (Day 28, dose group 1): 446.67 X/uL
- White Blood Cells EOS (Day 28, dose group 1): 0.00 X/uL
- White Blood Cells LYMP + MONO (Day 28, dose group 1): 4546.67 X/uL
- White Blood Cells NEUT (Day 28, dose group 1): 3673.33 X/uL
- White Blood Cells WBC (Day 28, dose group 1): 8670 µL⁻¹
- Others Het/Poly (Day 28, dose group 3): 44.67%
- Red Blood Cells HCT (Day 28, dose group 3): 30.00%
- White Blood Cells BASO (Day 28, dose group 3): 560.00 X/uL
- White Blood Cells EOS (Day 28, dose group 3): 0.00 X/uL
- White Blood Cells LYMP + MONO (Day 28, dose group 3): 3323.33 X/uL
- White Blood Cells NEUT (Day 28, dose group 3): 3450.00 X/uL
- White Blood Cells WBC (Day 28, dose group 3): 7330 µL⁻¹
- Others Het/Poly (Day 28, dose group 20): 45.00%
- Red Blood Cells HCT (Day 28, dose group 20): 33.67%
- White Blood Cells BASO (Day 28, dose group 20): 410.00 X/uL
- White Blood Cells EOS (Day 28, dose group 20): 0.00 X/uL
- White Blood Cells LYMP + MONO (Day 28, dose group 20): 4413.33 X/uL
- White Blood Cells NEUT (Day 28, dose group 20): 3843.33 X/uL
- White Blood Cells WBC (Day 28, dose group 20): 8670 µL⁻¹
- Others Het/Poly (Day 35, dose group 1): 31.33%
- Red Blood Cells HCT (Day 35, dose group 1): 29.67%
- White Blood Cells BASO (Day 35, dose group 1): 253.33 X/uL
- White Blood Cells EOS (Day 35, dose group 1): 0.00 X/uL
- White Blood Cells LYMP + MONO (Day 35, dose group 1): 5046.67 X/uL
- White Blood Cells NEUT (Day 35, dose group 1): 2700.00 X/uL
- White Blood Cells WBC (Day 35, dose group 1): 8000 µL⁻¹
- Others Het/Poly (Day 35, dose group 3): 39.67%
- Red Blood Cells HCT (Day 35, dose group 3): 31.67%
- White Blood Cells BASO (Day 35, dose group 3): 310.00 X/uL
- White Blood Cells EOS (Day 35, dose group 3): 0.00 X/uL
- White Blood Cells LYMP + MONO (Day 35, dose group 3): 4876.67 X/uL
- White Blood Cells NEUT (Day 35, dose group 3): 3146.67 X/uL
- White Blood Cells WBC (Day 35, dose group 3): 8330 µL⁻¹
- Others Het/Poly (Day 35, dose group 20): 31.00%
- Red Blood Cells HCT (Day 35, dose group 20): 28.67%
- White Blood Cells BASO (Day 35, dose group 20): 350.00 X/uL
- White Blood Cells EOS (Day 35, dose group 20): 0.00 X/uL
- White Blood Cells LYMP + MONO (Day 35, dose group 20): 5230.00 X/uL
- White Blood Cells NEUT (Day 35, dose group 20): 2420.00 X/uL
- White Blood Cells WBC (Day 35, dose group 20): 8000 µL⁻¹
- Others Het/Poly (Day 42, dose group 1): 50.00%
- Red Blood Cells HCT (Day 42, dose group 1): 27.67%
- White Blood Cells BASO (Day 42, dose group 1): 353.33 X/uL
- White Blood Cells EOS (Day 42, dose group 1): 106.67 X/uL
- White Blood Cells LYMP + MONO (Day 42, dose group 1): 3913.33 X/uL
- White Blood Cells NEUT (Day 42, dose group 1): 4626.67 X/uL
- White Blood Cells WBC (Day 42, dose group 1): 9000 µL⁻¹
- Others Het/Poly (Day 42, dose group 3): 34.33%
- Red Blood Cells HCT (Day 42, dose group 3): 27.50%
- White Blood Cells BASO (Day 42, dose group 3): 710.00 X/uL
- White Blood Cells EOS (Day 42, dose group 3): 0.00 X/uL
- White Blood Cells LYMP + MONO (Day 42, dose group 3): 4816.67 X/uL
- White Blood Cells NEUT (Day 42, dose group 3): 2806.67 X/uL
- White Blood Cells WBC (Day 42, dose group 3): 8330 µL⁻¹
- Others Het/Poly (Day 42, dose group 20): 43.00%
- Red Blood Cells HCT (Day 42, dose group 20): 34.67%
- White Blood Cells BASO (Day 42, dose group 20): 360.00 X/uL
- White Blood Cells EOS (Day 42, dose group 20): 0.00 X/uL
- White Blood Cells LYMP + MONO (Day 42, dose group 20): 4960.00 X/uL
- White Blood Cells NEUT (Day 42, dose group 20): 4013.33 X/uL
- White Blood Cells WBC (Day 42, dose group 20): 9330 µL⁻¹
- Others Het/Poly (Day 49, dose group 1): 32.00%
- Red Blood Cells HCT (Day 49, dose group 1): 30.00%
- White Blood Cells BASO (Day 49, dose group 1): 370.00 X/uL
- White Blood Cells EOS (Day 49, dose group 1): 0.00 X/uL
- White Blood Cells LYMP + MONO (Day 49, dose group 1): 5266.67 X/uL
- White Blood Cells NEUT (Day 49, dose group 1): 2696.67 X/uL
- White Blood Cells WBC (Day 49, dose group 1): 8330 µL⁻¹
- Others Het/Poly (Day 49, dose group 3): 31.33%
- Red Blood Cells HCT (Day 49, dose group 3): 29.67%
- White Blood Cells BASO (Day 49, dose group 3): 263.33 X/uL
- White Blood Cells EOS (Day 49, dose group 3): 0.00 X/uL
- White Blood Cells LYMP + MONO (Day 49, dose group 3): 6606.67 X/uL
- White Blood Cells NEUT (Day 49, dose group 3): 3130.00 X/uL
- White Blood Cells WBC (Day 49, dose group 3): 10000 µL⁻¹
- Others Het/Poly (Day 49, dose group 20): 30.33%
- Red Blood Cells HCT (Day 49, dose group 20): 31.33%
- White Blood Cells BASO (Day 49, dose group 20): 236.67 X/uL
- White Blood Cells EOS (Day 49, dose group 20): 0.00 X/uL
- White Blood Cells LYMP + MONO (Day 49, dose group 20): 5846.67 X/uL
- White Blood Cells NEUT (Day 49, dose group 20): 2583.33 X/uL
- White Blood Cells WBC (Day 49, dose group 20): 8670 µL⁻¹

— US20070036839A1, “Phosphorylated glucomannane polysaccharides containing 1-6 and 1-2 linkages increase weight gain in poultry” (priority 2005, published 2007)
